Test results reported in patent US9594073B2, “Test solvent for evaluating the compatibility of biologically active substances and graft copolymers” (ABBVIE DEUTSCHLAND GMBH & CO KG, priority 2010, dated 2017).

Assay: Homogeneity of melt extrudates with Soluplus (optical microscope)
Type: physicochemical
Method: Samples were prepared by melt extrusions of mixtures consisting of fenofibrate or ibuprofen and Soluplus®. […] Aliquots of 50 g of the powdery mixtures were extruded on a laboratory extruder (Rondol l (10 mm) Rondol Technology Ltd. Staffordshire GB) using a conveying screw equipped with two kneading elements at about 120° C. and 100 rpm. The powdery mixtures were continuously metered in via a vibratory feeder. The extrudate exiting the extruder was passed through a calendar with two smooth rollers arranged at a gap distance of 0.4 mm. Calendered sheets having a thickness of about 1 mm were thus obtained. Pieces of 2 mm×2 mm were cut out from the sheets and homogeneity of the pieces was examined using an optical microscope (Leica DMLM).

Amount of crystals in extrudate (ibuprofen concentration 40 wt %): no crystals
Amount of crystals in extrudate (ibuprofen concentration 45 wt %): no crystals
Amount of crystals in extrudate (ibuprofen concentration 50 wt %): low
Amount of crystals in extrudate (ibuprofen concentration 55 wt %): moderate
Amount of crystals in extrudate (ibuprofen concentration 60 wt %): high
Structure (SMILES): CC(C)Cc1ccc(C(C)C(=O)O)cc1 (centres unmarked) [ibuprofen]
